Reference: ChEMBL document CHEMBL1201862, “PubChem BioAssay data set” (2004)
Calls of active or inactive are those of the source.

Tests used:
Format in all cases: functional
[1] = target: SWI/SNF-related matrix-associated actin-dependent regulator of chromatin subfamily A member 2 (Homo sapiens, UniProt P51531); test: Luminescence-based cell-based high throughput dose response assay to identify activators of the function of SWI/SNF related, matrix associated, actin dependent regulator of chromatin, subfamily a, member 2 (SMARCA2, BRM).
SWI/SNF-related matrix-associated actin-dependent regulator of chromatin subfamily A member 2, sequence (P51531 whole entry): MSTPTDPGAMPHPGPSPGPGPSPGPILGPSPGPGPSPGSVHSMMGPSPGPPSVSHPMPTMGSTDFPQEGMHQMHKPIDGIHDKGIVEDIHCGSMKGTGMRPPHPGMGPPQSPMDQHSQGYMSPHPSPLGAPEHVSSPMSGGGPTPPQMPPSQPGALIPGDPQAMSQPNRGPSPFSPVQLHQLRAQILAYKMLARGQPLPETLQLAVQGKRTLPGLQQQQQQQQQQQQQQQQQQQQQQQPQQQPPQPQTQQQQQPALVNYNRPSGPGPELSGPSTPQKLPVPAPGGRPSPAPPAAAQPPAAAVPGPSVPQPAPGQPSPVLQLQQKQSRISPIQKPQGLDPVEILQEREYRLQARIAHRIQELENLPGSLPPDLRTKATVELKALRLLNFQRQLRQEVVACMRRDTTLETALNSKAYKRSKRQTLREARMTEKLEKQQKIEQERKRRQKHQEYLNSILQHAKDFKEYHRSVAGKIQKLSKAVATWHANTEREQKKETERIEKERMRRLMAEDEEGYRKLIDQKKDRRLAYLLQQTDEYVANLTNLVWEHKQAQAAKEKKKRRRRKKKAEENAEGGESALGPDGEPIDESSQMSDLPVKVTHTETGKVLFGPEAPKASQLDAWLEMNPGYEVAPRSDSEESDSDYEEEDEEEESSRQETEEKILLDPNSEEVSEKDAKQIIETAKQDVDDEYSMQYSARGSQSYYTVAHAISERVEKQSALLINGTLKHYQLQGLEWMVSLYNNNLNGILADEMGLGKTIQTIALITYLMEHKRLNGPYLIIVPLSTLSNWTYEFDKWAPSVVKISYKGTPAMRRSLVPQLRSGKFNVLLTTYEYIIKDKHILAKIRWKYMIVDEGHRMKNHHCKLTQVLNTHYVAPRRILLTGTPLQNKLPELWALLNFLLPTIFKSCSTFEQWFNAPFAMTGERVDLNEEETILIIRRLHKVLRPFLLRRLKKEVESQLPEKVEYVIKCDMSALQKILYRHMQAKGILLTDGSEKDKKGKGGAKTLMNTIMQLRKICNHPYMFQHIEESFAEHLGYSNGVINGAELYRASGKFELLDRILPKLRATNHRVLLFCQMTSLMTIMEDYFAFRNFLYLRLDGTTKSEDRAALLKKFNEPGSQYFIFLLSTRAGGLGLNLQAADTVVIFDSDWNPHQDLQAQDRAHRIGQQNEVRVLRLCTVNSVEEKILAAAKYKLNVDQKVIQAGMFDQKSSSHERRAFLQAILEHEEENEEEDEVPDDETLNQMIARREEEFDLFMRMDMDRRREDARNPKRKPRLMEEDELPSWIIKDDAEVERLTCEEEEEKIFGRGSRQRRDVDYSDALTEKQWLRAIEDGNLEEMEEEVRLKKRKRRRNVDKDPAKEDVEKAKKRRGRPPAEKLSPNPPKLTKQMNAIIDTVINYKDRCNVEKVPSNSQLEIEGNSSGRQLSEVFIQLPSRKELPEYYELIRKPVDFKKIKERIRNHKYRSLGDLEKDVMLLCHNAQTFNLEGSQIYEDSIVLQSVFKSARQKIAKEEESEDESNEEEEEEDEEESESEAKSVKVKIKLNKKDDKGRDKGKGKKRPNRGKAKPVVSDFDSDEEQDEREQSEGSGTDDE

[2] = Counterscreen for activators of the function of SWI/SNF related, matrix associated, actin dependent regulator of chromatin, subfamily a, member 2 (SMARCA2, BRM): Luminescence-based cell-based high throughput dose response assay to identify non-selective compounds using the VP16 reporter assay.
[3] = target: T1, Type-1 angiotensin II receptor (Homo sapiens, UniProt P30556); test: antagonism of angiotensin II type 1 receptor – cell-based, uHTS hits, selectivity assay for APJ receptor antagonist project, dose response (AID 463214);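 note: antagonist potency against angiotensin II stimulated AT1 response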
T1 sequence (P30556 whole entry): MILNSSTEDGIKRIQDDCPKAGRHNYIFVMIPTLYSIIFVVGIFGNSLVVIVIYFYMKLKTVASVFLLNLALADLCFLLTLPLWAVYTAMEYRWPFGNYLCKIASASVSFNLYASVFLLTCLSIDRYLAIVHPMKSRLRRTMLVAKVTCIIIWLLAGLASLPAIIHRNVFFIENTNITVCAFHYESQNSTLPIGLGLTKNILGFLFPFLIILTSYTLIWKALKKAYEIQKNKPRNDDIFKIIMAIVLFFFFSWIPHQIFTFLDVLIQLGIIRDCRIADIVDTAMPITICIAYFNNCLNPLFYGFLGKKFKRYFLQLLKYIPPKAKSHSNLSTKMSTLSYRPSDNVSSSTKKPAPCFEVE

Beta-galactosidase = Beta-galactosidase (Escherichia coli, UniProt Q8VNN2); test: PubChem AID 485352
Beta-galactosidase, sequence (Q8VNN2 whole entry): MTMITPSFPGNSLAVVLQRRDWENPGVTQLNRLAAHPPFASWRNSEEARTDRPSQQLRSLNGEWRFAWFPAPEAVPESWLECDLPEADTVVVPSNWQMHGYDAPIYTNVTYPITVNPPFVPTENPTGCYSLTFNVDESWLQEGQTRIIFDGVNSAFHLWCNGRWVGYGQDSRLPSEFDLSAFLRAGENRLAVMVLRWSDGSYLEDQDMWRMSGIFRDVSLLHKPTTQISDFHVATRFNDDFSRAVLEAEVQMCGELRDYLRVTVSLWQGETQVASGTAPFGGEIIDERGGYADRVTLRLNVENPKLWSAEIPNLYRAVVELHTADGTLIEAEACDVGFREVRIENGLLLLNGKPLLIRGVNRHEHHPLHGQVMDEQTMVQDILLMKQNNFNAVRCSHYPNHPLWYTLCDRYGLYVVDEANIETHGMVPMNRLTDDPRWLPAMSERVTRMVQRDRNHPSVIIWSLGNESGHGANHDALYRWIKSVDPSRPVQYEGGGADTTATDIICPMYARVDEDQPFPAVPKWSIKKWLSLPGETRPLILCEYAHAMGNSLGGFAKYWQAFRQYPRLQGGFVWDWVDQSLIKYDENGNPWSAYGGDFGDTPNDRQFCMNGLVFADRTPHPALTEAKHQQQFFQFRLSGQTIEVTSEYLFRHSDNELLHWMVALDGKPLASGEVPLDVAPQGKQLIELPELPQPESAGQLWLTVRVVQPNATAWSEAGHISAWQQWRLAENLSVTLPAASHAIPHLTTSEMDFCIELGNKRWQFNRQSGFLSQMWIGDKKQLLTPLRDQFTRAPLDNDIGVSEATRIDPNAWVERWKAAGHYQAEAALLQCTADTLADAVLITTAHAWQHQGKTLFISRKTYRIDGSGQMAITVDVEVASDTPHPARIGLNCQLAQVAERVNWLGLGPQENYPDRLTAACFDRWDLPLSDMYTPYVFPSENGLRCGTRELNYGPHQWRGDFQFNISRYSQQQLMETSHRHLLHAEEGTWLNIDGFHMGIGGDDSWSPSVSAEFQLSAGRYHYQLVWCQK

[4] = Luminescence Cell-Based Dose Retest to Confirm Inhibitors of Cancer Stem Cells. [Related pubchem assays (depositor defined):AID2717, AID2721]; details: Homo sapiens
[5] = microbe, parasite or virus in culture; details: Mycobacterium tuberculosis
[6] = target: T2, Polyadenylate-binding protein 1 (Homo sapiens, UniProt P11940); test: MLLE domain peptide-binding blockers, IC50 – biochemical, fluorescence polarization, FITC-PAM2 peptide, dose response (AID 602259); details: read-out: IC50_Mean
T2 sequence (P11940 whole entry, the tested form may be a part): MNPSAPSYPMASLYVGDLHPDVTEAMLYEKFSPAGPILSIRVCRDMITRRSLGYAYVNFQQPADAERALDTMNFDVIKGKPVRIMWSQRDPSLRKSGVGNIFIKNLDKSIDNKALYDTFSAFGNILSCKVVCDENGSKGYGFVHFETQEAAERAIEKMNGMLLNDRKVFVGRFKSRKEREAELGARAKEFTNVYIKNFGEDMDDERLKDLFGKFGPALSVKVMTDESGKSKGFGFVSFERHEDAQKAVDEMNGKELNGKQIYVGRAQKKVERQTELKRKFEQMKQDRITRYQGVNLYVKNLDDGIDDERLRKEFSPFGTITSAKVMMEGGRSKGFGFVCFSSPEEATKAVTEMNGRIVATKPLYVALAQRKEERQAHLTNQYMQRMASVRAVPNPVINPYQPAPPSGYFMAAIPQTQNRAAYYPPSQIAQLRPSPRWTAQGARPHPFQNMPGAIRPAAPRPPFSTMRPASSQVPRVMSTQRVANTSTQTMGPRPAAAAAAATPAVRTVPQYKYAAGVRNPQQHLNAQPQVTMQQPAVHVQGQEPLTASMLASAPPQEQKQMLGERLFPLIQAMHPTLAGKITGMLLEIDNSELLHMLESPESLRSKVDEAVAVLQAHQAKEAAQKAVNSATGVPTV

[7] = target: T2, Polyadenylate-binding protein 1; test: MLLE binding blockers, Cy5 peptide tracer – biochemical, fluorescence polarization, Cy5-PAM2 peptide, secondary, miRNA deadenylation inhibitor project, dose response (AID 602260); details: read-out: IC50_Mean
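Throughout, for AC50: cells exposed to compound for roughly 70 hours or longer before luminescence read.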

O=C(CNc1cccc(Cl)c1)c1ccc(Br)cc1
EC50 [1]: > 91.2 µM (inactive) | EC50 [2]: > 91.2 µM (inactive) | IC50 [3]: 15 µM (active) | EC50 (Beta-galactosidase): > 40 µM (inactive)

Cc1csc(N=C(S)Nc2cccc(Cl)c2)n1
AC50 [4]: 7.09 µM (active) | CC50 [5]: 33.1 µM (active) | IC50 [6]: > 66 µM (inactive) | IC50 [3]: > 40 µM (not active) | IC50 [7]: > 66 µM (inactive) | EC50 (Beta-galactosidase): > 40 µM (inactive)
